The values that follow come from patent US20250340522A1, “ALBICIDIN DERIVATIVES, THEIR USE AND SYNTHESIS” (priority 2022, published 2025).

In brackets after ≈: the same amount, converted by molar mass.

The test system of one assay is Pantoea dispersa. Conditions: humans infected with the pathogen; background statement; cited from earlier work.
For the next assay, the system named is S. typhimurium TA100. The experiment in a line: MIC, microdilution assay (CLSI M07-A9). The format is cell-based. The note with it: Salmonella enterica, Gram-negativ, MHBII media, 37° C., 20 h, tested 64 to 0.008 μg/mL, read-out: MIC S. Typhimirium. As to the method: (§1) The tests were performed using the micro dilution method.
(§2) The determination of MIC values was performed according to the ninth edition of the Approved Standard M07-A9 (CLSI. Methods for Dilution Antimicrobial Susceptibility Tests for Bacteria That Grow Aerobically; Approved Standard-Ninth Edition. CLSI document M07-A9. Wayne, PA: Clinical and Laboratory Standards Institute; 2012.)
(§3) The test was carried out for different bacterial strains (E. coli DSM 1116, E. coli BW25113 [gram negative], B. subtilis DSM 10 [gram positive], M. luteus DSM 1790 [gram positive], S. typhimurium TA100 [gram negative]) and M. phlei DSM 750. 20 µL of cryo stock of each strain were inoculated in 20 mL of LB media (Lysogeny broth: 10 g/L peptone, 5 g/L yeast extract, 5 g/L NaCl) followed by incubation over night at 37° C., 200 rpm. The test inoculum was adjusted by the 0.5 McFarland Standard (OD625 from 0.08 to 0.1). Within 15 min of preparation, the adjusted inoculum suspension was diluted in MHBII media (BBL TM Mueller-Hinton Broth II, Becton, Dickinson and Company, New Jersey/USA) so that each well contained approximately 5×10^5 CFU/mL in a final volume of 100 μL. 95 μL of the inoculum were applied per well and 5 μL of the (diluted) antibiotic substance were added.
(§4) Previously the dry antibiotic compounds were dissolved in DMSO (100%) with a concentration of 2560 μg/mL and the resulting stock solutions were further diluted in DMSO (100%). […] of each antibiotic dilution were applied to the microdilution tray to reach final concentrations of 64 μg/mL to 0.008 μg/ml. One row of each well plate was left as a growth control without antibiotic substances and another row of the microdilution tray was used as sterility control (only MHB II-media). The antimicrobial effect of the solvent (DMSO) was tested by adding 5 μL DMSO to several wells without antibiotics. Purity check and cell titer control were performed according to International Standard M07-A9 on Mueller-Hinton II Agar (Mueller Hinton II Broth, 15 g/L agar-agar). Both microdilution trays and agar plates were incubated at 37° C. for 20 h and subsequently analyzed visually.
(§5) The potency of an antibiotic is determined by the minimum inhibitory concentration (MIC). Contrary to intuition, a particularly low value is equated with a high potency.

In a further assay the test system is B. subtilis DSM 10. The experiment in a line: MIC, microdilution assay (CLSI M07-A9). The note with it: Bacillus subtilis, DSM10, Gram-positiv, MHBII media, 37° C., 20 h, tested 64 to 0.008 μg/mL. The format is cell-based. As to the method: as §1, §2, §3, §4, §5
Background: Dilution methods test growth across graded concentrations, often in twofold steps.

The next assay deals with M. luteus DSM 1790. The experiment in a line: MIC, microdilution assay (CLSI M07-A9). Type of assay: cell-based. Conditions: Micrococcus luteus, DSM1790, Gram-positiv, MHBII media, 37° C., 20 h, tested 64 to 0.008 μg/mL. As to the method: as §1, §2, §3, §4, §5
In another assay the test system is E. coli BW25113. The experiment in a line: MIC, microdilution assay (CLSI M07-A9). Type of assay: cell-based. Conditions: Escherichia coli, Gram-negativ, MHBII media, 37° C., 20 h, tested 64 to 0.008 μg/mL. As to the method:
as §1, §2, §3, §4, §5

The next assay relates to M. phlei DSM 750. The experiment in a line: MIC, microdilution assay (CLSI M07-A9). Conditions: Mycolicibacterium phlei, DSM750, MHBII media, 37° C., 20 h, tested 64 to 0.008 μg/mL. The format is cell-based. As to the method: as §1, §2, §3, §4, §5
The test system of assay [1] is E. Coli. (50% human serum). The experiment in a line: MIC, microdilution assay in presence of 50% human serum. Type of assay: cell-based. The note with it: Escherichia coli, 20 h, Gram-negativ. As to the method: E. coli BW25113, S. typhimurium TA100; Bacillus subtilis DSM10; and M. phlei DSM 750 and human serum
as §1, §2, §3, §4, §5

In a further assay the test system is selected strains. The experiment in a line: Antibacterial activity against selected strains, overall comparison with lead structure (Table 1). The format is cell-based. The note with it: D-variations in Table 1. The protocol:
as §1, §2
The test was carried out for different bacterial strains (E. coli DSM 1116, E. coli BW25113 [gram negative], B. subtilis DSM 10 [gram positive], M. luteus DSM 1790 [gram positive], S. typhimurium TA100 [gram negative]) and M. phlei DSM 750. 20 µL of cryo stock of each strain were inoculated in 20 mL of LB media (Lysogeny broth: 10 g/L peptone, 5 g/L yeast extract, 5 g/L NaCl) followed by incubation over night at 37° C., 200 rpm. The test inoculum was adjusted by the 0.5 McFarland Standard (OD625 from 0.08 to 0.1). […]
Previously the dry antibiotic compounds were dissolved in DMSO (100%) with a concentration of 2560 μg/mL and the resulting stock solutions were further diluted in DMSO (100%). […] Both microdilution trays and agar plates were incubated at 37° C. for 20 h and subsequently analyzed visually.
The potency of an antibiotic is determined by the minimum inhibitory concentration (MIC). […]

For `O=C(O)[C@H]1/C(=C/CO)O[C@@H]2CC(=O)N21` [Clavulanic acid], in the assay on Pantoea dispersa, the “Treatment outcome of Pantoea dispersa infection” value (“Treatment outcome” for short) is reported as “ineffective”.
`COc1c(NC(=O)c2ccc(NC(=O)c3ccc(NC(=O)[C@H](Cc4c[nH]nn4)NC(=O)c4ccc(NC(=O)/C(C)=C/c5ccc(O)cc5)cc4)cn3)c(OC)c2O)ccc(C(=O)O)c1O` [Compound 0, reference compound]: the MIC (commonly the lowest concentration found to suppress growth) in the assay with S. typhimurium TA100 is not above 0.016 µg/mL; against B. subtilis DSM 10, 0.031 µg/mL (≈ 0.035 µM); against M. luteus DSM 1790 it was 0.031 µg/mL (≈ 0.035 µM); against E. coli BW25113, not above 0.016 µg/mL; in the assay with M. phlei DSM 750, 0.125 µg/mL (≈ 0.141 µM); in assay [1], 0.5 µg/mL.
Take `COc1c(NC(=O)c2ccc(NC(=O)c3ccc(NC(=O)[C@H](Cc4c[nH]nn4)NC(=O)c4ccc(NC(=O)/C(C)=C/c5ccc(O)cc5)cc4)cc3F)c(OC)c2O)ccc(C(=O)O)c1O` [Compound 1]: the MIC in the assay with S. typhimurium TA100 is not above 0.016 µg/mL; in the assay with B. subtilis DSM 10, 0.125 µg/mL (≈ 0.138 µM); with M. luteus DSM 1790, 0.031 µg/mL (≈ 0.0343 µM); in the assay with E. coli BW25113 it was 0.016 µg/mL (≈ 0.0177 µM); in the assay on M. phlei DSM 750, 1 µg/mL (≈ 1.11 µM); in assay [1], 1 µg/mL.
For the compound `COc1c(NC(=O)c2ccc(NC(=O)c3c(F)cc(NC(=O)[C@H](Cc4c[nH]nn4)NC(=O)c4ccc(NC(=O)/C(C)=C/c5ccc(O)cc5)cc4)cc3F)c(OC)c2O)ccc(C(=O)O)c1O` [Compound 2], the “Activity compared with the lead structure (0)” value with selected strains is reported as “about as active as the lead structure (0)”. In addition, the minimal inhibitory concentration (MIC) is not above 0.016 µg/mL in the assay on S. typhimurium TA100; 0.125 µg/mL (≈ 0.136 µM) in the assay with B. subtilis DSM 10; 0.25 µg/mL (≈ 0.271 µM) against M. luteus DSM 1790; not above 0.016 µg/mL against E. coli BW25113; 1 µg/mL (≈ 1.09 µM) in the assay on M. phlei DSM 750; 0.5 µg/mL in assay [1].
Regarding `COc1c(NC(=O)c2ccc(NC(=O)c3ccc(NC(=O)[C@H](Cc4c[nH]nn4)NC(=O)c4ccc(NC(=O)/C(C)=C/c5ccc(O)cc5)cc4)cc3Cl)c(OC)c2O)ccc(C(=O)O)c1O` [Compound 3], the “Activity compared with the lead structure (0)” value in the assay on selected strains is listed as “about as active as the lead structure (0)”. The MIC in the assay on S. typhimurium TA100 was not above 0.016 µg/mL; against B. subtilis DSM 10, 0.063 µg/mL (≈ 0.0685 µM); against E. coli BW25113, not above 0.016 µg/mL; against M. phlei DSM 750, 0.5 µg/mL (≈ 0.544 µM); in assay [1], 0.5 µg/mL.
Regarding `COc1c(NC(=O)c2ccc(NC(=O)c3ccc(NC(=O)[C@H](Cc4c[nH]nn4)NC(=O)c4ccc(NC(=O)/C(C)=C/c5ccc(O)cc5)cc4)cc3C(F)(F)F)c(OC)c2O)ccc(C(=O)O)c1O` [Compound 5], the MIC with S. typhimurium TA100 was 0.031 µg/mL (≈ 0.0325 µM); against B. subtilis DSM 10 it was 4 µg/mL (≈ 4.2 µM); in the assay with M. luteus DSM 1790 it was 4 µg/mL (≈ 4.2 µM); with E. coli BW25113, 0.125 µg/mL (≈ 0.131 µM); against M. phlei DSM 750, 8 µg/mL (≈ 8.4 µM); in assay [1], not below 8 µg/mL.
`COc1c(NC(=O)c2ccc(NC(=O)c3ccc(NC(=O)[C@H](Cc4c[nH]nn4)NC(=O)c4ccc(NC(=O)/C(C)=C/c5ccc(O)cc5)cc4)cc3Br)c(OC)c2O)ccc(C(=O)O)c1O` [Compound 6]: the MIC with S. typhimurium TA100 is 0.016 µg/mL (≈ 0.0166 µM); in the assay on B. subtilis DSM 10, 0.125 µg/mL (≈ 0.13 µM); against M. luteus DSM 1790, 0.5 µg/mL (≈ 0.519 µM); in the assay on E. coli BW25113 it was 0.016 µg/mL (≈ 0.0166 µM); against M. phlei DSM 750, 1 µg/mL (≈ 1.04 µM); in assay [1], 1 µg/mL.
Regarding `COc1c(NC(=O)c2ccc(NC(=O)c3ccc(NC(=O)[C@H](Cc4c[nH]nn4)NC(=O)c4ccc(NC(=O)/C(C)=C/c5ccc(O)cc5)cc4)cc3I)c(OC)c2O)ccc(C(=O)O)c1O` [Compound 8], the MIC is 0.031 µg/mL (≈ 0.0307 µM) in the assay on S. typhimurium TA100; 0.5 µg/mL (≈ 0.495 µM) against B. subtilis DSM 10; 4 µg/mL (≈ 3.96 µM) against M. luteus DSM 1790; 0.063 µg/mL (≈ 0.0623 µM) against E. coli BW25113; 4 µg/mL (≈ 3.96 µM) with M. phlei DSM 750; not below 8 µg/mL in assay [1].
For `CN(C)c1cc(NC(=O)CNC(C)(C)C)c(O)c2c1C[C@H]1C[C@H]3[C@H](N(C)C)C(O)=C(C(N)=O)C(=O)[C@@]3(O)C(O)=C1C2=O` [tigecycline], the “Treatment outcome” value with Pantoea dispersa is “successful”.
Take colistin: the “Treatment outcome” value in the assay with Pantoea dispersa is “successful”.
